For data set [1], the system named is YuMM5.2 tumors. It counts as in vivo. The procedure:
Tumor models and cells. The mouse B16F10 and Yumm5.2 cell lines were purchased from American Type Culture Collection (ATCC, Manassas, VA). The mouse melanoma cell line BPD6 was established from iBP as described elsewhere (Zhao et al., Immunity 2018, 48, 147-160). B16F10 and BPD6 cells were maintained in Dulbecco's Modified Eagle's Medium (DMEM) supplemented with 8% fetal bovine serum (FBS), 0.1 mM non-essential amino acids (NEAA) and 1 mM sodium pyruvate. YuMM5.2 cells were maintained in DMEM/F12 media supplemented with 10% FBS. The cells were replated 3 times/week at a confluency of 1:10 and were kept in a 37° C. incubator at 5% CO2. For subcutaneous tumor models B16F10 (5×10^4 or 1×10^5), YuMM5.2 (5×10^5), and BPD6 (5×10^5) cells were injected into the right flank of the mice. For iBP mice, tumors were induced with a single intradermal dose of 4-hydroxytamoxifen in DMSO (150 μg/mouse). Tumors were measured thrice weekly using an electronic caliper. Tumor volumes were calculated by the formula V=L×(W×W)/2. For iBP mouse tumors, volumes were calculated by the formula V=L×B×H. For tumor growth rate studies mice were euthanized when the tumors reached a maximum size of 2000 mm^3.
Ovarlectomy and subcutaneous pellet Insertion. Ovariectomy was performed as previously described (Nelson et al., Science 2013, 342, 1094-1098). Eight days prior to tumor inoculation, 7 weeks old C57BL/6J or 5 weeks old (iBP) female mice were subjected to ovariectomy or sham surgery. Mice were anesthetized in an inhalation chamber (2% Isoflurane) and maintained in half the dose of isoflurane (1%) via nose cone throughout the surgical process. Prior to surgery, mice were administered a 5 mg/kg dose of carprofen subcutaneously. The area below the ribs was shaved with an electronic razor and the skin was sterilized by rubbing with betadine and alcohol (3× alternating). A horizontal incision was made through the skin above the ovary fat pad, followed by a vertical incision through the abdominal muscle wall. The ovary was externalized and removed using a cauterizing scissors (or returned if sham). Fat pad was replaced, and muscle walls were opposed and sutured (1-2 stitches). Following suturing, 1 drop of bupivacaine (0.25%) was added on top of the incision site. The skin was opposed, and a wound clip was placed on the incision site. This was repeated for the other ovary. The mouse was then removed from anesthesia and kept in a clean cage and monitored until conscious. The mice were monitored for recovery for 10 days.
Single cell isolation from tumors. Tumors were isolated, minced on a petri dish in media (DMEM+5% FBS), and then enzymatically digested by the addition of 100 μg/mL DNase I (D5025-150KU, Sigma-Aldrich) and 1 mg/mL collagenase (Collagenase A, Cat #10103586001, Sigma-Aldrich) for 30 mins-45 mins. For iBP models, isolated tumors were sliced into large chunks and subjected to mechanical digestion in a gentleMACS Dissociator for 30 seconds twice. Following this, tumors were digested with an enzyme cocktail containing DNase I, collagenase, and hyaluronidase (100 μg/mL) (H6254, Sigma-Aldrich) for 40 mins following a second round of mechanical digestion for 30 seconds (twice). The cells were then filtered through a 40 μm strainer to produce single cell suspensions and the enzymes were diluted by addition of additional media then spun down to remove media. Red blood cells were lysed with the addition of ACK lysis buffer (Cat #A1049201. ThermoFisher Scientific) for 4 mins at room temperature. Following red blood cell lysis, cells were washed with PBS before proceeding to flow cytometry staining or magnetic bead-based isolation.
Flow cytometry staining. Single cells suspensions (10^6 cells in 50 μL) were incubated with Live/dead fixable dead cell stain in PBS for 10 mins at 4° C. Cells were spun down at 1000×g and were incubated with anti-CD16/32 (Catalog #14-0161-85, ThermoFisher Scientific) in flow buffer (10 gms BSA in 1 L PBS+sodium azide) for 15 mins. […]

Data set [2] relates to T cells co-cultured with BMDM. Put plainly: T cells co-cultured with bone marrow-derived macrophages (BMDM) polarized to M2. It counts as cell-based, mouse. Conditions: for proliferation of T cells (CFSE dilution): macrophages differentiated in NM. The procedure: In vitro bone marrow-derived macrophage differentiation. For this purpose, bone marrow cells were aseptically collected from 8-10 weeks old female C57BL/6J mice by crushing the femurs and tibias in PBS, […] and 2 mM EDTA. Cells were added to ACK buffer to lyse the red blood cells for 2 mins with intermediate vortexing. The solution was filtered through a 40 μm strainer to remove bone fragments. To differentiate bone marrow cells to macrophages the cells were plated in DMEM media (100%) or DMEM media (70%) and 30% tumor-conditioned media, supplemented with 10% heat-inactivated charcoal-stripped serum in the presence of 30 ng/mL MCSF (Cat #312-02, PeproTech). After 3 days cells were supplemented with 50% of respective fresh media. On day 6 the media was removed and replaced with fresh media. […] For polarization, cells were further treated with LIPS (100 ng/mL, Cat L2630, Sigma Aldrich) and IFNγ (20 ng/mL, Cat #315-05, PeproTech) (24 hr) for M1 polarization or IL4 (10 ng/mL, cat #214-14, PeproTech) for M2 polarization.
T cell proliferation assay and staining. CD3+ T cells were isolated from the spleens of C57BL/6J or P-mel mice with magnetic bead-based T cell isolation kit (Cat #19851, StemCell Technologies). T cells from naïve mice were stained with 5 μM CFSE (Cat #C34554, ThermoFisher Scientific) for 5 minutes in PBS+5% CFS with rapid vortexing following which the cells were washed twice with PBS. Stained T cells were then counted and plated in 96-well plates coated with anti-CD3 antibody (0.5 μg/mL, Cat #19851, ThermoFisher Scientific) anti-CD28 antibody (1 μg/mL, Cat #16-0281-86, Thermo Fisher Scientific) at desired density (250,000 T cells/50,000 CD11b or BMDM) in the presence of IL2 (50 ng/mL) (Cat #212-12, PeproTech). 72 hr after plating the cells were incubated with protein transport inhibitors brefeldin (Cat #00-4506-51, Thermo Fisher Scientific) and monensin (Cat #00-4505-51, Thermo Fisher Scientific) for 6 hr at a final concentration of 2 μM monensin and 3 μg/mL brefeldin after which they were collected and were processed for staining for flow cytometry.
Of note, no changes in the percentage of Ly6C+/Ly6G+ MDSCs in tumors between the two treatment conditions were observed (FIG. 10D). […] The addition of tumor conditioned media allows the TME to be partially mimicked where tumor derived factors influence the differentiation and polarization of macrophages. […] The polarized macrophages were subsequently co-cultured with sub-optimally activated T cells (CD3/CD28 and IL2) isolated from spleens of non-tumor bearing mice, for 72 hr following which they were treated with protein transport inhibitors (monensin and brefeldin) for 6 hr to prevent release of cytokines and chemokines.

Where [3] appears, read: E2 vs placebo, ex vivo PMA and ionomycin 4 hr.

Like-named read-outs stand apart in the source and are kept apart here.

Consider 17β-estradiol [E2], for which the “tumor promoting effects of E2, tumor cells co-mixed with BMDM (1:1)” value in data set [1] (BMDM from Esr1^f/f, LysMCre versus Esr1^f/f) is “significantly compromised”. Further, the “number of PD1+CD8+ T cells (exhausted T cells)” value in data set [1] (E2 treatment) is recorded as “increased”. In data set [1] (setting [3]), the “Granzyme B expression in CD8+ TILs” value is reported as “reduced expression”; the “IFNγ in CD8+ TILs” value is “reduced expression”; the “PD1 expression on CD8+ TILs” value is given as “significantly more”; the “activation markers CD44 and CD69 on CD8+ TILs” value was “reduced expression”. In addition, in data set [1] (E2 vs placebo, ovariectomized C57BL/6J), the tumor growth result is listed as “significantly increased”. Moreover, the “infiltration of CD4+ FOXP3+ regulatory T cell subsets” value in data set [1] (E2 vs placebo, FIGS. 16D-16E B16F10 and YuMM5.2) is given as “not observed”. Further, in data set [1] (Esr1^f/f and LysMCre control mice), the tumor growth result is listed as “increased”. In addition, in data set [1] (Esr1^f/f, LysMCre mice (myeloid ERα knockout)), the tumor growth entry was “not evident”. Further, the “percentage of Ly6C+/Ly6G+ MDSCs in tumors” value in data set [1] (flow cytometry, E2 vs placebo) is given as “no changes”. Further, the “M1 (proinflammatory macrophages) in tumor infiltrating immune cells” value in data set [1] (flow cytometry, Esr1^f/f animals) is “decrease”. Further, the “proliferation of T cells (CFSE)” value in data set [2] (BMDM from Esr1^f/f and Esr1^f/f, LysMCre differentiated in NM, DMSO or E2) is recorded as “No difference”. The “T cell proliferation (CFSE dilution)” value in data set [2] (macrophages differentiated in 30% TCM and E2) is “effectively suppressed”. In addition, the “proliferation of T cells (CFSE dilution)” value in data set [2] (E2) is reported as “not affected”. Besides, the “expression of GZMB and IFNγ in T cells” value in data set [2] (macrophages differentiated in TCM, E2 1 nM vs DMSO) was “decreased expression”. In addition, the “expression of IFNγ and GZMB in T cells” value in data set [2] (macrophages in normal media (NM), E2 1 nM) is given as “did not display any change”.

In the case of `C[C@]12CC[C@@H]3c4ccc(O)cc4C[C@@H](CCCCCCCCC[S+]([O-])CCCC(F)(F)C(F)(F)F)[C@H]3[C@@H]1CC[C@@H]2O` (some centres unmarked) [fulvestrant], the “inflammatory macrophages (MHCII^hi CD206−)” value in data set [1] (E2 treated mice co-treated with fulvestrant) was “increase”. In data set [1] (fulvestrant 25 mg/kg, E2 supplemented mice), the tumor growth entry is listed as “significantly reduced”. Moreover, in data set [1] (fulvestrant treatment of E2 treated mice), the “number of PD1+CD8+ T cells (exhausted T cells)” value is “decrease”. In addition, the “cytotoxic capabilities of tumor infiltrating T cells, Granzyme B (GZMB) expression” value in data set [1] (mouse, in vivo) is “increase”. Moreover, in data set [2] (macrophages differentiated in 30% TCM, E2 (1 nM)+fulvestrant (100 nM)), the “E2-induced suppression of T cell proliferation” value is listed as “reversed”. For the same compound, in data set [2] (E2+fulvestrant), the “proliferation of T cells (CFSE dilution)” value was “not affected”.

The record behind these values is patent publication US20240398831A1, “COMPOSITIONS COMPRISING SMALL MOLECULE REGULATORS OF TUMOR IMMUNITY AND METHODS OF USING SAME” (Duke University, priority 2021, published 2024).
